According to PubChem BioAssay (NCI):
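Protocol summary: plate cells (96-well), add compound at 5 concentrations, incubate 48 h, interpolate endpoints linearly. The concentration for 50% growth inhibition is given as GI50. Definition used: TGI = concentration required for complete inhibition of growth.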

Legend:
Assay in all cases: growth of human tumour cells (NCI), 48 h
SF-295 CNS = system: SF-295 CNS
NCI/ADR-RES ovarian = system: NCI/ADR-RES ovarian
BT-549 breast = system: BT-549 breast
CAKI-1 renal = system: CAKI-1 renal
786-0 renal = system: 786-0 renal
MALME-3M melanoma = system: MALME-3M melanoma
HL-60(TB) leukemia = system: HL-60(TB) leukemia
HCT-116 colon = system: HCT-116 colon
NCI-H226 lung = system: NCI-H226 lung
DU-145 prostate = system: DU-145 prostate

| SMILES | GI50 (SF-295 CNS) [µM] | TGI (SF-295 CNS) [µM] | GI50 (NCI/ADR-RES ovarian) [µM] | TGI (NCI/ADR-RES ovarian) [µM] | GI50 (BT-549 breast) [µM] | TGI (BT-549 breast) [µM] | GI50 (CAKI-1 renal) [µM] | TGI (CAKI-1 renal) [µM] | GI50 (786-0 renal) [µM] | TGI (786-0 renal) [µM] | GI50 (MALME-3M melanoma) [µM] | TGI (MALME-3M melanoma) [µM] | GI50 (HL-60(TB) leukemia) [µM] | TGI (HL-60(TB) leukemia) [µM] | GI50 (HCT-116 colon) [µM] | TGI (HCT-116 colon) [µM] | GI50 (NCI-H226 lung) [µM] | TGI (NCI-H226 lung) [µM] | GI50 (DU-145 prostate) [µM] | TGI (DU-145 prostate) [µM] |
| --- | --- | --- | --- | --- | --- | --- | --- | --- | --- | --- | --- | --- | --- | --- | --- | --- | --- | --- | --- | --- |
| COc1cc2c(/C=C3/C(=O)Nc4ccccc43)c(Cl)n(Cc3ccccc3)c2cc1C | > 100 | > 100 | > 100 | > 100 | > 100 | > 100 | > 100 | > 100 | > 100 | > 100 | > 100 | > 100 | 6.61 | > 100 | > 100 | > 100 | > 100 | > 100 | > 100 | > 100 |
| FC(F)(F)c1ccc2c(c1)N(CCCN1CCN(C3CC3)CC1)c1ccccc1S2 | 3.74 | 18.4 | 10.3 | 23.1 | 16.7 | 35.4 | 3.6 | 16.1 | 15.4 | 30.3 | 14 | 31.7 | 6.03 | 23.3 | 9.43 | 23.2 | 10.7 | 23.4 | 13.8 | 28.6 |
| O=C(Oc1ccccc1)c1cc(O)c(O)c(O)c1 | 17.9 | 83.7 | 11.4 | 56.7 | 15.6 | 83.2 | 15.4 | > 100 | 11.2 | 50 | 21.8 | > 100 | 1.43 | 7.12 | 11.7 | > 100 | 12.9 | > 100 | 15.7 | > 100 |
| COc1ccc2c(c1)[nH]c(=O)c1c3cccnc3cn21 | 0.0339 | 5.9 | 0.0231 | 0.0571 | 0.356 | 25.3 | 0.0405 | 14.7 | 0.066 | 15.8 | 0.0437 | 18.3 | 0.0262 | 1.21 | 0.0496 | 14.3 | 0.0409 | 18.6 | 0.0365 | > 100 |
| CNC(=O)c1cc(Oc2ccc3nc(NC(=O)Nc4ccc(Cl)c(Cl)c4)sc3c2)ccn1 | 1.53 | 3.13 | 2.3 | 5.09 | 4.88 | > 100 | 2.46 | 6.3 | 2.26 | 5.11 | 1.51 | 3.3 | > 100 | > 100 | 1.88 | 4.35 | 2.28 | 4.58 | 2.45 | 6.29 |
| Cn1c2ccccc2c2c(=O)n(CCCC(=O)NCC(=O)OC(=NC3CCCCC3)NC3CCCCC3)c3c(-c4ccccc4)nnn3c21 | > 100 | > 100 | 15.6 | 33.5 | 27 | > 100 | 32.1 | > 100 | 18.5 | 45.1 | 47.2 | > 100 | 2.86 | 8.31 | 14.3 | 42.7 | 40 | > 100 | 18.4 | > 100 |
